Experimental data reported in PubChem BioAssay (NCI).
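Interpolation was linear, between the two tested concentrations surrounding the appropriate level; five concentrations were tested over 48 hours in 96-well plates. TGI denotes the concentration required for complete inhibition of growth.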

Key:
Experiment in all cases: inhibition of tumour cell growth, NCI panel, 48 h
NCI-H23 lung = test system: NCI-H23 lung
K-562 leukemia = test system: K-562 leukemia
OVCAR-5 ovarian = test system: OVCAR-5 ovarian
KM12 colon = test system: KM12 colon
HCC-2998 colon = test system: HCC-2998 colon
DLD-1 colon = test system: DLD-1 colon
SF-268 CNS = test system: SF-268 CNS
NCI/ADR-RES ovarian = test system: NCI/ADR-RES ovarian
MDA-MB-231 breast = test system: MDA-MB-231 breast
SF-295 CNS = test system: SF-295 CNS

Structure (SMILES)	TGI (NCI-H23 lung) [µM]	TGI (K-562 leukemia) [µM]	TGI (OVCAR-5 ovarian) [µM]	TGI (KM12 colon) [µM]	TGI (HCC-2998 colon) [µM]	TGI (DLD-1 colon) [µM]	TGI (SF-268 CNS) [µM]	TGI (NCI/ADR-RES ovarian) [µM]	TGI (MDA-MB-231 breast) [µM]	TGI (SF-295 CNS) [µM]
O=c1c(O)cccn1C1OC(CO)C(O)C1O (stereo not given)	> 100	> 100	> 100	> 100	> 100	> 100	> 100			
COc1cc2c(cc1OC)C(=O)/C(=C/c1ccc(O)cc1)CC2	> 10	> 10	> 10	> 10	> 10		> 10	> 10	> 10	> 10
O=[N+]([O-])c1ccc2nc(/C=C(\O)c3ccc(Cl)cc3)c(/C=C(\O)c3ccc(Cl)cc3)nc2c1	> 100	> 100	> 100	> 100	> 100		> 100	> 100	> 100	> 100
C=CC(OC(C)=O)c1ccc(OC(C)=O)cc1 (stereo not given)	37.3	> 100	28.1	18.6	18.6		10.7	54.3	9.12	22.1
CC(=O)Nc1ccc(/C=C2/NC(=S)N(/C=C3\C(=O)Oc4ccccc4C3=O)C2=O)cc1	> 100	> 100	> 100	> 100	> 100		> 100	> 100	> 100	> 100
COc1cc2oc(-c3ccc4c(c3)OCO4)c(OC)c(=O)c2c(O)c1OC	> 50	> 50	> 50	> 50	> 50		> 50	> 50	> 50	> 50
CCn1c(=O)c2c3ccc(OC(C)=O)cc3[nH]c2c2ccc(OC(C)=O)cc21	> 100	> 100	> 100	> 100	54.4		> 100	> 100	> 100	> 100
C=CCOC1(CC=C)C(=O)OC2C(O)COC21O (stereo not given)	> 100	> 100	> 100	> 100	> 100		> 100	> 100	> 100	> 100
CNC(=O)N(CCC#N)CCCN(C(=O)N(C)C)c1ccccc1	> 100	> 100	> 100	> 100	> 100		> 100	> 100	> 100	> 100
CC(=Nc1cc(Cl)cc(Cl)c1)c1ccncc1	> 100	> 100	> 100	> 100	> 100		> 100	> 100	> 100	> 100
COC(=O)C1CC23C=CCN4CC(C2C)C2(c5ccccc5NC12)C43 (stereo not given)	> 100	> 100	> 100	> 100	> 100		> 100	> 100	> 100	> 100
Nc1ccc2c(c1)NC(=O)[C@@H]1CCCN1C2=O	> 100	> 100	> 100	> 100	> 100		> 100	> 100	> 100	> 100
O=c1[nH]c2cc([N+](=O)[O-])c(Nc3c4ccccc4nc4ccccc34)c([N+](=O)[O-])c2[nH]1	16	6.96	7.08	10.9	5.75		10.5	10.9	17.5	11.2
COC(=O)/C=c1/c2ccccc2n2c1c1ccccc1[n+]2C	11.4	> 100	17.6	9.47	5.75		22.8	> 100	26	5.63
CC(=O)NC(=O)NC1=NCCC(=O)N1CCc1c[nH]c2ccccc12	> 100	> 100	> 100	> 100	> 100		> 100	> 100	> 100	> 100
CC1CN=C(c2ccc(-c3nc(-c4ccc(C5=NCC(C)N5)cc4)nc(N(C)C)n3)cc2)N1 (stereo not given)	9.94	6	10.8	8.96	3.76		6.53	56.4	3.05	15.8
NNC(=O)Cn1ccnn1	> 100	> 100	> 100	> 100	> 100		> 100	> 100	> 100	> 100
COc1ccc(OC)c(C[P+](c2ccccc2)(c2ccccc2)c2ccccc2)c1	11.8	5.91	> 100	14.1	26.2		> 100	> 100	34.9	> 75.9
